Test results as given in PubChem BioAssay AID449764 (Southern Research Specialized Biocontainment Screening …, 2010).

Tested on: Mycobacterium tuberculosis H37Rv growth inhibition, no glycerol
Test: Mycobacterium tuberculosis H37Rv growth inhibition, no glycerol, confirmatory dose response (AID 449764);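 also: growth read after 7 days of incubation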
Details: for IC90: measured here: IC90 growth inhibition

Compound	IC50 [µM]	IC90 [µM]
COc1ccc(-c2oc3cccnc3c2/C=C/c2ccc(OC)c(OC)c2)cc1	56.6	> 100
NC(=O)N=Nc1c2[nH]c3ccccc3nc-2c2ccccc12	5.96	8.44
COc1ccccc1N1CCN(CCCCOc2cccc3ccccc23)CC1	33	43.5
CN(C)CCCN(C(=O)c1ccc([N+](=O)[O-])s1)c1nc2cc3c(cc2s1)OCCO3	35.8	62.2
COc1cc(OC)nc(-n2ncc(Br)c(Br)c2=O)n1	22.5	25.1
CCOC(=O)C1CCN(c2nc3cc(OC)ccc3cc2C#N)CC1	83.5	> 100
CCN(CC)c1ccc2c(Cl)c(Br)c(=O)oc2c1	22.6	61.6
Cc1ccc(OC(=O)CCN2C(=O)c3ccccc3C2=O)cc1C	85.1	> 100
CC(=O)c1c(C)n(C)c2ccc(OC(=O)c3ccc([N+](=O)[O-])cc3)cc12	19.8	> 100
Cc1cccc2c1-c1sc(C(=O)Nc3ccccc3N3CCN(C)CC3)cc1CO2	24.1	27.6
CCOC(=O)/C(=N/Nc1ccccc1)c1csc(Nc2ccccc2)n1	41.6	> 100
Cc1cccc(NC(=O)c2nc[nH]c2C(=O)N[C@H](C)c2ccccc2)c1	10.2	> 100
O=C(O)C1CC=CCC1C(=O)N1CCN(c2nc(-c3ccccc3Cl)c3cc(Br)ccc3n2)CC1 (configuration not stated)	43.2	68.8
O=C(O)c1ccc(N2C(=O)/C(=C/c3ccc(-c4ccc([N+](=O)[O-])cc4)o3)C=C2c2ccccc2)cc1	49.8	> 100
CCCn1c(Nc2nc3ccccc3n2C)nc2ccccc21	65.3	75.8
Cc1ccc(O)c(C(=O)CC(=O)c2ccccc2Cl)c1	17.9	27.3
Cc1ccnc(NC(=O)COc2ccc3c(c2)CCC3)c1	85.7	> 100
Cc1nonc1OCCNCCNc1ccc([N+](=O)[O-])c2cccnc12	17.7	31.4
C(=N\NC1=Nc2cccc3cccc1c23)/c1cccnc1	92.8	> 100
COc1ccc(COc2cc(-c3cccc(OC)c3)nc3ccc(NC(=O)c4ccc(OC)cc4)cc23)cc1	24	> 100
Cc1cc(C)nc(Sc2ncnc(N)c2[N+](=O)[O-])n1	19.3	25.5
CCOC(=O)c1c(NC(=O)CSc2nc3ccc(OC)cc3[nH]2)sc2c1CC(C)(C)NC2(C)C	39.7	53.7
CC(=O)OCC1O[C@@H](O[C@@H]2C[C@H]3C(C)(C)[C@H](OC(C)=O)CC[C@]3(C)[C@H]3CC[C@]45C[C@]4(CC[C@H]5[C@@H](C)C[C@@H](O)[C@H](O)C(C)(C)O)[C@@]32C)[C@H](O)[C@@H](O)[C@@H]1O (some centres not stated)	25.9	35.7

Compound	IC50 [µM]	IC90 [µM]
CC1(C)Cc2c(cnn2-c2ccccc2)-c2c1c1ccccc1n2CC(O)CCl (configuration not stated)	95.4	> 100
COC(=O)CSc1[nH]c2ccc(Br)cc2c1[N+](=O)[O-]	15.1	25
CCOC(=O)CNC(=S)n1cnc(N)n1	45.8	> 100
CCOC(=O)CSc1ncnc2c1sc1nc(N3CCOCC3)c3c(c12)CCCC3	24.9	27.9
Cn1cnc(Sc2ncnc3nc[nH]c23)c1[N+](=O)[O-]	12.1	21.1
c1ccc2sc(Sc3ncnc4sccc34)nc2c1	11.4	12.9
COc1ccc(-c2oc(NC(=O)CCl)c(C#N)c2-c2ccc(OC)cc2)cc1	43	61.7
O=C(/C=C/c1ccco1)Oc1ccc(C(=S)N2CCOCC2)cc1	60.3	> 100
CC1(C)CC(=O)C2=C(C1)OC(N)=C([N+](=O)[O-])C2c1ccc(C#N)s1 (configuration not stated)	79.7	97.7
Cc1ccc(C(=O)ONc2ccc(N=O)cc2)cc1	57.3	> 100
O=C1C(=O)N(c2ccccc2)c2ccccc21	17.8	34
CCOc1ccc(N2C=Nc3ccc(OCC)cc3C2)cc1	79.2	> 100
CCCCn1nc(C(=O)Nc2ccccc2N2CCCC2)c2ccccc2c1=O	81	> 100
CCN(CC)S(=O)(=O)c1ccc2oc(SCC(=O)Nc3cc(C)on3)nc2c1	10.8	16.6
O=C(/C=C/c1ccccc1)N1CCN(CCN2C(=O)c3cccc4cccc(c34)C2=O)CC1	2.44	3.96
Fc1cccc(CCN2CCNC[C@H]2Cc2cccc3ccccc23)c1	35.5	46.3
COc1ccc(C2=NN(C(=O)COC(=O)c3ccc(S(C)(=O)=O)c([N+](=O)[O-])c3)C(c3ccco3)C2)cc1 (configuration not stated)	18.3	26.9
CCOc1ccc(/C=N/Nc2ccc(Cl)nn2)c(O)c1	5.87	6.71
CCOC(=O)C(/C=C(\C#N)C(=O)OCC)=C(/N)N1CCN(c2ccc(Cl)cc2)CC1	11.9	> 25
O=C(NC(=S)Nc1cccc2cccnc12)c1ccccc1	56.9	> 100
COC(=O)c1ccc(-n2cnc3ccccc32)nc1	17.7	39.5
O[C@@H](c1cc(C(F)(F)F)nc2c(C(F)(F)F)cccc12)[C@H]1CCCCN1	22.7	25.5
CCOc1ccc(C(=O)CCN2CCCCCC2)cc1	23.7	26.2

Compound	IC50 [µM]	IC90 [µM]
CC(OC(=O)c1cc(Cl)ccc1[N+](=O)[O-])C(=O)NC(C)c1ccc(F)cc1 (configuration not stated)	27.6	> 100
Cc1cc(C)cc(NC(=O)c2ccc(Cn3nc(C)c(Cl)c3C)o2)c1	34.8	48.3
CNc1ccccc1C(=O)OC(C)C(=O)Nc1ccc(Cl)cn1 (configuration not stated)	35.3	65.3
CCCCN(C)C(=O)Cc1c(OC)ccc2cc(Br)ccc12	24.4	33.5
O=C(CCc1nnc(CCCc2ccccc2)o1)NCCCC1CCCC1	21.5	24.9
O=C1c2cccc3c([N+](=O)[O-])ccc(c23)C(=O)N1O	11.9	13.5
Cc1ccc2cc(C)c(N3CCN(c4ccccn4)CC3)nc2c1	43.1	46.7
O=C(C[n+]1cc(-c2ccc(Cl)cc2)n2c1CCC2)Nc1nc(-c2ccccc2)cs1	23.4	26.7
COc1cnc(-c2ccccn2)nc1Oc1ccc(Cl)c2ccccc12	0.67	1.38
COc1ccc(CCNc2cc(-c3ccccc3)nc3ncnn23)cc1	< 0.2	27.3
O=C(CSc1nnnn1C1CCCCC1)Nc1nc2c(s1)CCCC2	46.9	53.1
O=c1oc2ccccc2c(Nc2ccccc2O)c1[N+](=O)[O-]	9.46	13.9
CC(=O)c1ccc(NC(=O)c2cc(CC(C)C)on2)cc1	12	13.8
C/C(=N\NC(=O)c1ccc(O)cc1)c1ccc2c(c1)Nc1ccccc1S2	50.2	95.6
CC1(C)Cc2ccccc2C2=NNC(=O)C2=N1	11.2	15.1
CC(=O)c1cccc(NC(=S)NC2CCCCCCC2)c1	27.3	> 100
O=c1[nH]c(=O)n(Cc2ccccc2)c2nc(-c3ccc(Oc4ccc(F)cc4)c([N+](=O)[O-])c3)n(CCO)c12	50.5	> 100
CCOC(=O)CSc1snnc1-c1ccccc1	29.4	> 100
COc1ccccc1C(=O)NNC(=O)C(=O)NCc1ccccc1	22.8	40.6
CCCC[C@@H](CN[C@H](C)CNC)NCC1CCC(C(C)(C)C)CC1 (some centres not stated)	23.2	26.4
Nc1nc(CN2CCN(c3ccccc3F)CC2)nc(N2CCCc3ccccc32)n1	12	24.2
O=C(/C=C/c1ccc(O)c([N+](=O)[O-])c1)c1ccc2ccccc2c1	24	> 100
COc1ccc(NC(=O)CSC2CCCCC2)cc1	76.3	> 100

Compound	IC50 [µM]	IC90 [µM]
CCCSc1nnc(Sc2nnnn2-c2ccccc2)s1	22.5	38.8
CSc1ccc(C(=O)C2CCCN(C(=O)c3ccc4c(c3)no[n+]4[O-])C2)cc1 (configuration not stated)	1.65	2.53
O=C(CSc1ncnc2nc[nH]c12)c1ccc(Cl)cc1	19.1	25.4
CC(C)c1ccc2c(c1)CCC1C(C)(CN)CCCC21C (configuration not stated)	17.7	26.7
O=C(OCC(=O)c1cccs1)C1=COCCO1	29.9	> 100
O=[N+]([O-])c1ccc(S(=O)(=O)c2ccccc2)nc1	1.76	2.98
CCc1c(C)sc(NC(=S)N2CCN(CC)CC2)c1C(=O)OC	13.3	> 25
COc1ccc(NS(=O)(=O)c2ccc3nc(COc4cccc5ccccc45)[nH]c3c2)cc1	62.3	> 100
CCCCCC(=O)NNC(=S)NC(=O)c1ccc([N+](=O)[O-])cc1	3.22	5.86
CC(c1ccccc1)N1CCN(C(=O)CCl)CC1 (configuration not stated)	2.75	4.33
CCCCCCC#Cc1ccc2c(c1)COc1c3ccccc3nn1-2	75.5	> 100
CC(C)OC(=O)CCCCCN1C(=O)CSC1=S	11.5	19.2
Cc1nc(NC(=O)c2ccccc2)sc1C1(C)CC(c2ccc(OC(F)(F)F)cc2)=NO1 (configuration not stated)	29.7	60.4
COc1ccc(-c2cc(C3CCN(C(=O)OC(C)(C)C)CC3)[nH]n2)cc1	38.7	53.7
CCOC(=O)c1nn(-c2ccc(C)cc2)c2nc(Nc3ccccc3)cc(=O)n12	12	13.6
CCOC(=O)C(C)Oc1ccc(OCc2ccccc2)cc1 (configuration not stated)	9.95	14.6
CCCCS/C(N)=N/N=C/c1cc(C)ccc1O	22.7	34.1
CCCOc1cccc(C(=O)NC(=S)Nc2ccc(N3CCN(C)CC3)cc2)c1	–	> 100
CCN(CC)C(=O)[C@H]1CC(CC(=O)NCC23CC4CC(CC(C4)C2)C3)C(=O)N2CCc3c([nH]c4ccccc34)[C@]12C (some centres not stated)	19.4	29.7
C=CCC1(CC=C)CCCN1C(=O)c1cc(COc2ccc(-n3cncn3)cc2)on1	47.3	57.4
